Test results published in US20210379063A1, “ORAL AMINODIHYDROPHTHALAZINEDIONE COMPOSITIONS AND THEIR USE IN THE TREATMENT OF NON-VIRAL HEPATITIS” (Immunopharma Plus D.O.O., priority 2018, published 2021).
Like-named read-outs stand apart in the source and are kept apart here. Marks after values point to notes of the source that are not given here.

What was measured:
[1] = tested on: acute experimental hepatitis, tetrachloromethane (CCL4)
Protocol: Acute experimental hepatitis that develops with the introduction of tetrachloromethane (CCL4) is a classic model for studying the mechanisms of reparative regeneration of the liver after exposure to various chemical toxicants.
The experiments were carried out on male Wistar rats weighing 200-220 g, in accordance with the recommendations of the international ethics committees on the humane treatment of laboratory animals (EU Council Directive 86/609 EEC dated Nov. 24, 1986). Carbon tetrachloride (CCL4), was administered to the animals intraperitoneally once at a dose of 50 mg/kg of body weight. […] The animals were sacrificed on the 3rd, 7th day after the simulation of toxic hepatitis.

macrophages = settings: cited from earlier work
[2] = tested on: reparative liver regeneration after partial hepatectomy
Source text: Reparative liver regeneration was caused by the removal of ⅔ mass of the organ—partial hepatectomy by G. M. Higgis, R. M. Anderson.

porcine stomach (cardia) = settings: 10 mM donor solution
PHMG poisoning = test: Acute hepatitis caused by alcohol substitute PHMG in rats
Protocol: The experiment was carried out on 25 male white outbred rats weighing 200-300 g, in accordance with the recommendations of the international ethics committees on the humane treatment of laboratory animals (EU Council Directive 86/609 EEC dated Nov. 24, 1986). To create an experimental model, an aqueous solution of PHMG was used, which was administered intraperitoneally at a dose of 50 mg/100 g.

[3] = tested on: toxic hepatitis caused by Acetaminophen; settings: for ALT / AST / AST/ALT / GTP / Biochemiluminescence of blood plasma (BCL, quant): Acetaminophen + Tamerit
Protocol: The experiment was carried out on 45 adult male outbred white rats weighing 288.5±12.9 g, in accordance with the recommendations of the international ethics committees on the humane treatment of laboratory animals (EU Council Directive 86/609 EEC dated Nov. 24, 1986). To create an experimental model, an aqueous solution of Acetaminophen was administered intragastrically using a probe at a dosage of 110 mg/kg of body weight, which is about 2 times higher than the maximum allowable daily dose in humans. […] The drug was administered intragastrically, using a probe, in the form of an aqueous solution

[4] = tested on: hepatitis caused by pesticides
Source text: Clinically, this is manifested by pallor, fatigue, shortness of breath on exertion, hypoxia of the organs, respectively, and of the organism as a whole. The lipid peroxidation that develops at the same time causes tissue damage, and in response, macrophages infiltrate and generate oxygen radicals and pro-inflammatory cytokines (TNF, IL, etc.), thereby contributing their destructive potential to the development of the pathological process.

[5] = tested on: liver after introduction of carrageenan; settings: for ALT, units/l / AST, units/l: carrageenan + Tamerit
Protocol: The experiments were carried out on 25 male Wistar rats weighing 200-220 g, in accordance with the recommendations of the international ethics committees on the humane treatment of laboratory animals (EU Council Directive 86/609 EEC dated Nov. 24, 1986). […] Its mechanism of action is based on the inhibition of the process of phagocytosis and the activity of lysosomal hydrolases of mononuclear phagocytes. The drug was administered intragastrically through a probe in an aqueous solution at a dose of 10 mg/kg. The choice of time frame (4, 17 hours after surgery) corresponds to the phases of liver regeneration.

[6] = CCl4 3rd day + Tamerit 2 mg/kg intramuscularly
[7] = CCl4 7th day + Tamerit 2 mg/kg intramuscularly
[8] = PHMG 3 days + Tamerit intraperitoneally
[9] = PHMG 7 days + Tamerit intraperitoneally

Structure (SMILES): Nc1cccc2c(=O)[n-][nH]c(=O)c12.[Na+] [Tamerit, aminodihydrophthalazinedione sodium]
- ALT, U/L [1, 6]: 9.1 ± 1.6 U/L
- AST, U/L [1, 6]: 10.0 ± 2.0 U/L
- BCL, quant [1, 6]: 186.0 ± 7.0 quant
- ALT, U/L [1, 7]: 7.12 ± 0.20 U/L
- AST, U/L [1, 7]: 8.53 ± 0.13 U/L
- BCL, quant [1, 7]: 171 ± 18 quant
- effect on inflammatory reaction in toxic hepatitis ([1]; early stages of toxic hepatitis by tetrachloromethane): reduces the severity of the inflammatory reaction
- duration of reversible suppression of macrophage hyperactivity (macrophages; acute inflammatory diseases): 10 to 12 h
- excretion (macrophages): rapidly excreted
- toxicity (macrophages): extremely low toxicity
- Mitotic index, % ([2]; hepatectomy 4 hours + Tamerit): 2 ± 0.8 %
- Nuclear cytoplasmic index ([2]; hepatectomy 4 hours + Tamerit): 0.40 ± 0.005
- Number of binuclear cells, % ([2]; hepatectomy 4 hours + Tamerit): 16.6 ± 1.69%
- The size of the nucleus of hepatocytes, μm ([2]; hepatectomy 4 hours + Tamerit): 8.0 ± 0.26 μm
- Mitotic index, % ([2]; hepatectomy 17 hours + Tamerit): 5.5 ± 1.3 %
- Nuclear cytoplasmic index ([2]; hepatectomy 17 hours + Tamerit): 0.319 ± 0.01
- Number of binuclear cells, % ([2]; hepatectomy 17 hours + Tamerit): 29.83 ± 2.5 %
- The size of the nucleus of hepatocytes, μm ([2]; hepatectomy 17 hours + Tamerit): 7.67 ± 0.28 μm
- increase of the number of hepatocytes that divide by mitosis ([2]; regenerating liver): by an order of magnitude
- concentration in receptor compartment, Tamerit stomach, AVG (porcine stomach (cardia); 0 min): 0 ng/mL
- concentration in receptor compartment, Tamerit stomach (porcine stomach (cardia); 0 min, single chambers): 0 ng/mL
- concentration in receptor compartment, Tamerit stomach, AVG (porcine stomach (cardia); 15 min): 50 ng/mL
- concentration in receptor compartment, Tamerit stomach, AVG (porcine stomach (cardia); 30 min): 41 ng/mL
- concentration in receptor compartment, Tamerit stomach, AVG (porcine stomach (cardia); 45 min): 69 ng/mL
- concentration in receptor compartment, Tamerit stomach, AVG (porcine stomach (cardia); 90 min): 85 ng/mL
- concentration in receptor compartment, Tamerit stomach, AVG (porcine stomach (cardia); 120 min): 104 ng/mL
- degree of hepatocyte destruction (PHMG poisoning; 7th day after PHMG): minimal
- ALT, U/L (PHMG poisoning; PHMG 3rd day + Tamerit): 5.7 ± 1.9 U/L
- AST, U/L (PHMG poisoning; PHMG 3rd day + Tamerit): 11.3 ± 0.6 U/L
- GTP, U/L (PHMG poisoning; PHMG 3rd day + Tamerit): 17.5 ± 2.0 U/L
- ALT, U/L (PHMG poisoning; PHMG 7th day + Tamerit): 8.1 ± 0.2 U/L
- AST, U/L (PHMG poisoning; PHMG 7th day + Tamerit): 12.1 ± 0.3 U/L
- GTP, U/L (PHMG poisoning; PHMG 7th day + Tamerit): 26.0 ± 3.4 U/L
- Binuclear cells, % (PHMG poisoning; [8]): 65.12 ± 0.14 %
- Mitotic index, % (PHMG poisoning; [8]): 38.26 ± 0.18 %
- Binuclear cells, % (PHMG poisoning; [9]): 61.18 ± 0.24 %
- Mitotic index, % (PHMG poisoning; [9]): 45.6 ± 0.14* ** %
- ALT ([3]; 3rd day): 17.45 ± 1.3 U/L
- AST ([3]; 3rd day): 23.61 ± 1.2 U/L
- AST/ALT ([3]; 3rd day): 1.35 ± 0.03
- GTP ([3]; 3rd day): 35.8 ± 1.2 U/L
- ALT ([3]; 5th day): 12.2 ± 0.9 U/L
- AST ([3]; 5th day): 15.0 ± 1.0 U/L
- AST/ALT ([3]; 5th day): 1.24 ± 0.01
- GTP ([3]; 5th day): 33.8 ± 0.9 U/L
- ALT ([3]; 7th day): 12.0 ± 0.8 U/L
- AST ([3]; 7th day): 16.01 ± 2.0 U/L
- AST/ALT ([3]; 7th day): 1.33 ± 0.02
- GTP ([3]; 7th day): 30.8 ± 1.8 U/L
- ALT ([3]; 12th day): 18.0 ± 1.8 U/L
- AST ([3]; 12th day): 22.1 ± 1.5 U/L
- AST/ALT ([3]; 12th day): 1.22 ± 0.04
- GTP ([3]; 12th day): 29.4 ± 1.5 U/L
- Biochemiluminescence of blood plasma (BCL, quant) ([3]; 3 days): 213.0 ± 4.0 quant
- Biochemiluminescence of blood plasma (BCL, quant) ([3]; 12 days): 215.6 ± 5.0 quant
- signs of toxic hepatitis ([3]; rats treated with Tamerit intragastrically): less pronounced
- AST and ALT ([4]; after the end of treatment, AST-80, ALT-98 before): within normal limits
- Hemoglobin ([4]; at discharge after enteric-coated 100 mg tablets, 89 before): 120
- patient's condition ([4]; third day from the start of treatment): improved
- Mitotic index, % ([5]; Carrageenan 4 hours + Tamerit): 0.65 ± 0.25 %
- Nuclear cytoplasmic index ([5]; Carrageenan 4 hours + Tamerit): 0.36 ± 0.01
- Number of binuclear cells, % ([5]; Carrageenan 4 hours + Tamerit): 25.0 ± 3.58 %
- Mitotic index, % ([5]; Carrageenan 17 hours + Tamerit): 0.48 ± 0.12 %
- Nuclear cytoplasmic index ([5]; Carrageenan 17 hours + Tamerit): 0.35 ± 0.02
- Number of binuclear cells, % ([5]; Carrageenan 17 hours + Tamerit): 29.2 ± 4.18 %
- activity of aminotransferases ([5]; after carrageenan): completely restores the activity of aminotransferases to the parameters of healthy animals
- ALT, units/l ([5]; 4 hours): 40.2 ± 4.0 units/l
- AST, units/l ([5]; 4 hours): 85.4 ± 8.0 units/l
- ALT, units/l ([5]; 17 hours): 42.2 ± 3.5 units/l
- AST, units/l ([5]; 17 hours): 83.5 ± 4.5 units/l
